Assay results reported in patent publication US10294212B2 (CURADEV PHARMA PRIVATE LTD., priority 2013, dated 2019).

What was measured:
[1] = target: Human indoleamine 2,3-dioxygenase1 (hIDO1) (Homo sapiens (Human), UniProt P14902); assay: In-vitro IDO1 enzyme assay (conversion of L-tryptophan to KYN); format: biochemical; settings: read-out: IC50 (IDO1) Enz
Text: Human indoleamine 2,3-dioxygenasel (hIDO1) catalyzes the oxidative cleavage of the pyrrole ring of the indole nucleus of tryptophan to yield N-formylkynurenine which can be converted to kynurenine (KYN) by deformylation. hIDO1 with an N-terminal His tag, expressed and purified from E. coli cells was procured from either Enzo LifeScienccs, NY, USA). Unless otherwise stated, all materials were procured from Sigma Aldrich, Mo., USA.
The assay monitoring the conversion of L-tryptophan to KYN was carried out as follows. hIDO1 (10 nM) was incubated with tryptophan (30 μM) in the presence of ascorbic acid (20 mM), methylene blue (10 μM) and catalase (100 μg/mL) in potassium phosphate buffer (50 mM; pH 6.5) at 37C for 30 min. The reaction was terminated with 30% trichloroacetic acid (TCA) and further incubated at 65C for 15 min to fully convert N-formylkynurenine to KYN. The reaction mixture was then centrifuged to remove sediments and the KYN in the supernatant was estimated by UV-visible absorption spectroscopy at 360 nm using a Waters HPLC system fitted with a C-18 column or by LC/MS/MS. See, Sono, 1980, J. Biol. Chem., 255:1339-1345, which is herein incorporated by reference.
Percent inhibition at each concentration of test compounds was determined by estimating the decrease in KYN with reference to the reaction control with 1% DMSO vehicle. Data were analyzed using nonlinear regression to generate IC50 values using Graph Pad Prism® 5.

[2] = target: Human TDO (hTDO)-transfected CHO-K1 cells (Homo sapiens (Human), UniProt P48775); assay: CHO-K1 cell based TDO assay; settings: hTDO cellular assay
Description: Human TDO (hTDO)-transfected CHO-K1 cells were used to identify test compounds that inhibit TDO activity and reduce Kynurenine production. CHO-K1 cells (ATCC) were cultured in DMEM supplemented with sodium bicarbonate (2.1 g/L), HEPES (4.1 g/L), L-glutamine (2 mM), non-essential amino acid (84 mg/L) and fetal bovine serum (10%) and maintained at 95% humidity and 5% CO2 in a 37° C. incubator. The TDO gene (TDO2) (Accession number NM_005651.1) was purchased from Origene (USA) and stably expressed in CHO-Kl cells using the expression vector pcDNA4/Myc-HisB Hygro (Life Technologies, USA). TDO-expressing clones were identified based on the kynurenine production by the cells. Expanded clones were used for assay as described below. Unless otherwise stated, all materials were procured from Sigma.
hTDO transfected CHO-K1 cells (0.05 million/well) were seeded in a 96-well plate and maintained overnight in DMEM containing 10% FBS (200 μL) at 95% humidity and 5% CO2 in a 37° C. incubator. The following day, cells were washed and incubated with test compounds (typically 31 μM to 10 nM, final volume 150 μL) in Hanks Balanced Salt Solution (HBSS) containing 80 μM L-tryptophan for 2 hours. Supernatant (150 μL) from the cells was treated with 30% TCA ([…]) to precipitate proteins. Supernatants were further incubated at 65° C. for 15 min to convert N-formylkynurenine to kynurenine. KYN in the supernatant was measured by LC/MS/MS using an API4000 mass spectrometer (Applied Biosystems) coupled to a Shimadzu Prominence LC system fitted with a C18 column.
Percent inhibition of the test compounds was determined by measuring the decrease in KYN as compared to the reaction control (DMSO vehicle). IC50 values were calculated using Graph Pad Prism® 5 as described above.

Chain of Human indoleamine 2,3-dioxygenase1 (hIDO1) (P14902 whole entry): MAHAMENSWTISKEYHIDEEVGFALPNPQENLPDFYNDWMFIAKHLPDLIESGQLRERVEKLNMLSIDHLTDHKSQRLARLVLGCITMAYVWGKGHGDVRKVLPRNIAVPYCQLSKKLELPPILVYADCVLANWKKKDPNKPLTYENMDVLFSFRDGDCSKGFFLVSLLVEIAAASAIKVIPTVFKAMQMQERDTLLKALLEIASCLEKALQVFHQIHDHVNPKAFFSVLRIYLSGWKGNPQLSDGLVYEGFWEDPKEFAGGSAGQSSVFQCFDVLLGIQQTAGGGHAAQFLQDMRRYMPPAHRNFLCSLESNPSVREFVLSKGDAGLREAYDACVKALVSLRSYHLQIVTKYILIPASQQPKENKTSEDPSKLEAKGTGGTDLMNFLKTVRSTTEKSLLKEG
Chain of Human TDO (hTDO)-transfected CHO-K1 cells (P48775 whole entry): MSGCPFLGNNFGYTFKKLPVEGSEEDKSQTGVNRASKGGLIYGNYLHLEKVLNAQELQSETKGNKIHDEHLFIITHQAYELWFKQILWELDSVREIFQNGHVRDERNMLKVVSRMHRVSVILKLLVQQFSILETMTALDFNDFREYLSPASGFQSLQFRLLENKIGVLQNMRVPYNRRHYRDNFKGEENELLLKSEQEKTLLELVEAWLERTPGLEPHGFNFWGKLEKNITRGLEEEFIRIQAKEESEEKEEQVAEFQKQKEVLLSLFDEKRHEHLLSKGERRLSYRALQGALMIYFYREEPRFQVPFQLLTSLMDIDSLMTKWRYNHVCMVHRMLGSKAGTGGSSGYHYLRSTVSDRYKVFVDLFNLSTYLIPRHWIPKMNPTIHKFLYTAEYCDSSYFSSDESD

| SMILES | IC50 [1] | IC50 [2] |
| --- | --- | --- |
| CCOC(=O)Nc1sc2ccccc2c1Nc1ccc(F)c(Cl)c1 [Compound 209, Ethyl (3-((3-chloro-4-fluorophenyl)amino)benzo[b]thiophen-2-yl)carbamate] | > 1 µM | > 2 µM |
| CC(C)(C)c1cccc(Nc2c(N)oc3cnccc23)c1 [Compound 61, N^3-(3-(tert-Butyl)phenyl)furo[2,3-c]pyridine-2,3-diamine] | > 1 µM | > 2 µM |
| CCOC(=O)Nc1oc2c(-c3cccc(C#N)c3)nccc2c1N(C(=O)OCC)c1ccc(F)c(Cl)c1 [Compound 146, Ethyl (3-chloro-4-fluorophenyl)(7-(3-cyanophenyl)-2-((ethoxycarbonyl)amino)furo[2,3-c]pyridin-3-yl)carbamate] | > 1 µM | > 2 µM |
| Nc1oc2cnccc2c1Nc1cncc(Cl)c1 [Compound 52, N^3-(5-Chloropyridin-3-yl)furo[2,3-c]pyridine-2,3-diamine] | > 1 µM | 0.5 to 2 µM |
| Nc1oc2cnccc2c1Nc1cc(F)c(F)cc1F [Compound 12, N^3-(2,4,5-Trifluorophenyl)furo[2,3-c]pyridine-2,3-diamine] | > 1 µM | > 2 µM |
| Nc1oc2cnccc2c1Nc1cccc(-c2ccccc2)c1 [Compound 53, N^3-([1,1′-Biphenyl]-3-yl)furo[2,3-c]pyridine-2,3-diamine] | > 1 µM | > 2 µM |
| Nc1oc2cnccc2c1Nc1ccc(F)c(Cl)c1Cl [Compound 45, N^3-(2,3-Dichloro-4-fluorophenyl)furo[2,3-c]pyridine-2,3-diamine] | > 1 µM | > 2 µM |
| CCOC(=O)Nc1oc2c(C#Cc3ccc(C(N)=O)cc3)nccc2c1N(C(=O)OCC)c1ccc(F)c(Cl)c1 [Compound 160, Ethyl (7-((4-carbamoylphenyl)ethynyl)-2-((ethoxycarbonyl)amino)furo[2,3-c]pyridin-3-yl)(3-chloro-4-fluorophenyl)carbamate] | > 1 µM | > 2 µM |
| CC(C)(C)c1cc(Nc2c(N)oc3cnccc23)cc(C(C)(C)C)c1 [Compound 32, N^3-(3,5-Di-tert-butylphenyl)furo[2,3-c]pyridine-2,3-diamine] | > 1 µM | 0.5 to 2 µM |
| Nc1oc2cnccc2c1Nc1cccc(Cc2ccccc2)c1 [Compound 75, N^3-(3-Benzylphenyl)furo[2,3-c]pyridine-2,3-diamine] | > 1 µM | > 2 µM |
| Nc1sc2ccccc2c1Sc1cccc(Cl)c1 [Compound 122, 3-((3-Chlorophenyl)thio)benzo[b]thiophen-2-amine] | > 1 µM | > 2 µM |
| CCOC(=O)Nc1oc2c(C#N)nccc2c1N(C(=O)OCC)c1ccc(F)c(Cl)c1 [Compound 145, Ethyl (3-chloro-4-fluorophenyl)(7-cyano-2-((ethoxycarbonyl)amino)furo[2,3-c]pyridin-3-yl)carbamate] | > 1 µM | > 2 µM |
| CCOC(=O)Nc1oc2cnccc2c1N(C(=O)OCC)c1ccc(F)c(Cl)c1 [Compound 142, Ethyl (3-chloro-4-fluorophenyl)(2-((ethoxycarbonyl)amino)furo-[2,3-c]pyridin-3-yl)carbamate] | > 1 µM | > 2 µM |
| Nc1oc2cnccc2c1Nc1ccc(OC(F)(F)F)cc1 [Compound 50, N^3-(4-(Trifluoromethoxy)phenyl)furo[2,3-c]pyridine-2,3-diamine] | > 1 µM | 0.5 to 2 µM |
| N#Cc1ccc2c(Nc3ccc(F)c(Cl)c3)c(N)sc2c1 [Compound 136, 2-Amino-3-((3-chloro-4-fluorophenyl)amino)benzo[b]thiophene-6-carbonitrile] | > 1 µM | > 2 µM |
| COc1ccc(Nc2c(N)oc3cnccc23)c(OC)c1 [Compound 34, N^3-(2,4-Dimethoxyphenyl)furo[2,3-c]pyridine-2,3-diamine] | > 1 µM | > 2 µM |
| CCOC(=O)Nc1oc2c(C#N)nccc2c1N(C(=O)OCC)c1ccc(F)c(C(F)(F)F)c1 [Compound 194, Ethyl (7-cyano-2-((ethoxycarbonyl)amino)furo[2,3-c]pyridin-3-yl)(4-fluoro-3-(trifluoromethyl)phenyl)carbamate] | > 1 µM | > 2 µM |

| SMILES | IC50 [1] | IC50 [2] |
| --- | --- | --- |
| C#Cc1ccc(Nc2c(N)oc3cnccc23)cc1 [Compound 36, N^3-(4-Ethynylphenyl)furo[2,3-c]pyridine-2,3-diamine] | > 1 µM | 0.5 to 2 µM |
| CCOC(=O)Nc1oc2c(-c3ccccc3)nccc2c1Nc1ccc(F)c(Cl)c1 [Compound 162, Ethyl (3-((3-chloro-4-fluorophenyl)amino)-7-phenylfuro[2,3-c]pyridin-2-yl)carbamate] | > 1 µM | > 2 µM |
| Nc1oc2cnccc2c1Nc1cccc2c1CCCC2 [Compound 63, N^3-(5,6,7,8-Tetrahydronaphthalen-1-yl)furo[2,3-c]pyridine-2,3-diamine] | > 1 µM | > 2 µM |
| Nc1oc2cnccc2c1Nc1ccc(Cl)cc1 [Compound 17, N^3-(4-Chlorophenyl)furo[2,3-c]pyridine-2,3-diamine] | > 1 µM | 0.5 to 2 µM |
| Nc1oc2cnccc2c1Nc1ccc(I)c(Cl)c1 [Compound 18, N^3-(3-Chloro-4-iodophenyl)furo[2,3-c]pyridine-2,3-diamine] | > 1 µM | 0.5 to 2 µM |
| Nc1oc2cnccc2c1Nc1ccc(Cl)cc1Cl [Compound 7, N^3-(2,4-Dichlorophenyl)furo[2,3-c]pyridine-2,3-diamine] | > 1 µM | > 2 µM |
| Nc1oc2cnccc2c1Nc1ccc(F)cc1Cl [Compound 30, N^3-(2-Chloro-4-fluorophenyl)furo[2,3-c]pyridine-2,3-diamine] | > 1 µM | 0.5 to 2 µM |
| Cc1cc(-c2nccc3c(Nc4ccccc4N4CCCCC4)c(N)oc23)ccn1 [Compound 242, 7-(2-Methylpyridin-4-yl)-N^3-(2-(piperidin-1-yl)phenyl)furo[2,3-c]pyridine-2,3-diamine] | > 1 µM | > 2 µM |
| N#Cc1ccc(Nc2c(N)oc3cnccc23)cc1 [Compound 39, 4-((2-Aminofuro[2,3-c]pyridin-3-yl)amino)benzonitrile] | > 1 µM | 0.5 to 2 µM |
| Nc1oc2cnccc2c1Nc1ccc(Cl)c(Cl)c1Cl [Compound 31, N^3-(2,3,4-Trichlorophenyl)furo[2,3-c]pyridine-2,3-diamine] | > 1 µM | > 2 µM |
| CC(=O)c1ccc(Nc2c(N)oc3cnccc23)cc1 [Compound 41, 1-(4-((2-Aminofuro[2,3-c]pyridin-3-yl)amino)phenyl)ethanone] | > 1 µM | 0.5 to 2 µM |
| CCOC(=O)Nc1oc2c(-c3ccncc3)nccc2c1N(C(=O)OCC)c1ccc(F)c(C(F)(F)F)c1 [Compound 193, Ethyl (2-((ethoxycarbonyl)amino)-7-(pyridin-4-yl)furo[2,3-c]pyridin-3-yl)(4-fluoro-3-(trifluoromethyl)phenyl)carbamate] | > 1 µM | > 2 µM |
| Nc1oc2cnccc2c1Nc1ccc(C(F)(F)F)cc1 [Compound 6, N^3-(4-(Trifluoromethyl)phenyl)furo[2,3-c]pyridine-2,3-diamine] | > 1 µM | 0.5 to 2 µM |
| N#Cc1nccc2c(Nc3ccc(F)c(Cl)c3)c(NC(=O)OCc3ccccc3)oc12 [Compound 155, Benzyl (3-((3-chloro-4-fluorophenyl)amino)-7-cyanofuro[2,3-c]pyridin-2-yl)carbamate] | > 1 µM | 0.5 to 2 µM |
| CC(C)Oc1cc2c(Nc3ccc(F)c(Cl)c3)c(N)oc2c(-c2ccccc2)n1 [Compound 107, N^3-(3-Chloro-4-fluorophenyl)-5-isopropoxy-7-phenylfuro[2,3-c]pyridine-2,3-diamine] | > 1 µM | > 2 µM |
| Nc1sc2ccccc2c1Nc1ccc(F)c(C(F)(F)F)c1 [Compound 128, N^3-(4-Fluoro-3-(trifluoromethyl)phenyl)benzo[b]thiophene-2,3-diamine] | < 0.2 µM | > 2 µM |
